# How the values were obtained:
# D(1A) dopamine receptor = D(1A) dopamine receptor (Homo sapiens, UniProt P21728); assay: Displacement of [3H]SCH 23390 from dopamine D1 receptor expressed in CHO cells; assay type: cell-based
# D(2) dopamine receptor = D(2) dopamine receptor (Homo sapiens, UniProt P14416); assay: Displacement of [3H]methylspiperone from dopamine D2 receptor expressed in CHO cells; assay type: cell-based
# Chain of D(2) dopamine receptor (P14416 whole entry): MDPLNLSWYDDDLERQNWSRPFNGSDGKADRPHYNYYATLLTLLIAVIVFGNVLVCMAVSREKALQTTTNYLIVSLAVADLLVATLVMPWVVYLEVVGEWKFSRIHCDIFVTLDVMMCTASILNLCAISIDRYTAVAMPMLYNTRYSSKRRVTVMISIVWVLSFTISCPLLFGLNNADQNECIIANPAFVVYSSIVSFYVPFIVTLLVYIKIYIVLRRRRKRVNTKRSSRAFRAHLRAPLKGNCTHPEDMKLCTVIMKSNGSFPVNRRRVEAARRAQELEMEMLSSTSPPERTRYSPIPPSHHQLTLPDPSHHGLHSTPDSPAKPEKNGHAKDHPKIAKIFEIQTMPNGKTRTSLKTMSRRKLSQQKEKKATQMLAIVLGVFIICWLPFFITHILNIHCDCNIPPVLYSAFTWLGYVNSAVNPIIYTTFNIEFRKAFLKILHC
# Chain of D(1A) dopamine receptor (P21728 whole entry): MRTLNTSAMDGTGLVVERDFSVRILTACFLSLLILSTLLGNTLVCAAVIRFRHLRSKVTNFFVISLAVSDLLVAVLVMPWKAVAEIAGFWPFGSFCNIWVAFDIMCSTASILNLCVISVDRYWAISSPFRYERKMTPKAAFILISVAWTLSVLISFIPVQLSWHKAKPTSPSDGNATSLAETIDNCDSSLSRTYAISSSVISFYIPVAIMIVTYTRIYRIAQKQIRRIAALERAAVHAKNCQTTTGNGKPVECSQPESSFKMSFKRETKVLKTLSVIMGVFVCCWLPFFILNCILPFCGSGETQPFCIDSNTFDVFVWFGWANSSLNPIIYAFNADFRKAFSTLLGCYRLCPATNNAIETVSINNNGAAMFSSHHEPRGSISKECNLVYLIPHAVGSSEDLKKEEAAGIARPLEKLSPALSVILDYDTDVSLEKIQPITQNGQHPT
Compound,Ki (D(1A) dopamine receptor),Ki (D(2) dopamine receptor)
FC(F)(F)Oc1cccc(CN2CCN(C3=Nc4cc(Cl)ccc4Nc4ccccc43)CC2)c1,3800 nM,3.4 nM
CCN1CCN(C2=Nc3cc(Cl)ccc3N(NC(=O)c3ccccc3Cl)c3ccccc32)CC1,54 nM,709 nM
COc1ccc(C(=O)NN2c3ccc(Cl)cc3N=C(N3CCN(C)CC3)c3ccccc32)cc1,,> 3000 nM
CN1CCN(C2=Nc3cc(Cl)ccc3N(NC(=O)c3cccnc3)c3ccccc32)CC1,85 nM,12700 nM
O=C(NN1c2ccc(Cl)cc2N=C(N2CCN(CC3CCCCC3)CC2)c2ccccc21)c1ccccc1Cl,294 nM,> 3000 nM
O=C(NN1c2ccc(Cl)cc2N=C(N2CCN(Cc3cccc4c3OCO4)CC2)c2ccccc21)c1ccccc1Cl,571 nM,> 2000 nM
COc1cc(C(=O)NN2c3ccccc3N=C(N3CCN(C)CC3)c3cc(Cl)ccc32)cc(OC)c1OC,20 nM,3230 nM
Cc1ccccc1S(=O)(=O)N1c2ccc(Cl)cc2N=C(N2CCN(C)CC2)c2ccccc21,71 nM,63 nM
O=C(NN1c2ccc(Cl)cc2N=C(N2CCN(Cc3ccc(F)cc3F)CC2)c2ccccc21)c1ccccc1Cl,886 nM,> 3000 nM
CN1CCN(C2=Nc3cc(Cl)ccc3N(NC(=O)c3ccccc3Br)c3ccccc32)CC1,16 nM,792 nM
Cc1ccc(CN2CCN(C3=Nc4cc(Cl)ccc4Nc4ccccc43)CC2)c(C)c1,482 nM,65 nM
CN1CCN(C2=Nc3cc(Cl)ccc3N(NC(=O)c3cc(F)ccc3C(F)(F)F)c3ccc(Cl)cc32)CC1,24 nM,69 nM
Cc1ccccc1C(=O)N1c2ccc(Cl)cc2N=C(N2CCN(C)CC2)c2ccccc21,1230 nM,4930 nM
CN1CCN(C2=Nc3cc(Cl)ccc3N(NC(=O)c3ccc(C#N)cc3)c3ccc(Cl)cc32)CC1,51 nM,194 nM
O=C(NN1c2ccc(Cl)cc2N=C(N2CCN(Cc3cccc(OC(F)(F)F)c3)CC2)c2ccccc21)c1ccccc1Cl,2570 nM,> 3000 nM
O=C(NN1c2ccc(Cl)cc2N=C(N2CCN(Cc3ccc4c(c3)OCCO4)CC2)c2ccccc21)c1ccccc1Cl,238 nM,> 2000 nM
COc1ccccc1C(=O)NN1c2ccc(Cl)cc2N=C(N2CCN(C)CC2)c2ccccc21,13 nM,1130 nM
CC(C)N1CCN(C2=Nc3cc(Cl)ccc3N(NC(=O)c3ccccc3Cl)c3ccccc32)CC1,191 nM,998 nM
O=C(NN1c2ccc(Cl)cc2N=C(N2CCN(Cc3cccc4c3OC(F)(F)O4)CC2)c2ccccc21)c1ccccc1Cl,4750 nM,> 3000 nM
COc1cc(C(=O)NN2c3ccc(Cl)cc3N=C(N3CCN(C)CC3)c3ccccc32)cc(OC)c1OC,31 nM,5560 nM
Cc1ccccc1C(=O)NN1c2ccc(Cl)cc2N=C(N2CCN(C)CC2)c2cc(Cl)ccc21,2 nM,175 nM
CN1CCN(C2=Nc3cc(Cl)ccc3N(NC(=O)c3cccc(C(F)(F)F)c3)c3ccccc32)CC1,148 nM,1360 nM
COc1cccc(C(=O)NN2c3ccc(Cl)cc3N=C(N3CCN(C)CC3)c3cc(Cl)ccc32)c1,44 nM,139 nM
CN1CCN(C2=Nc3cc(Cl)ccc3N(NC(=O)c3ccncc3)c3ccccc32)CC1,86 nM,28400 nM
CN1CCN(C2=Nc3cc(Cl)ccc3N(NC(=O)c3cccc(F)c3F)c3ccccc32)CC1,16 nM,
FC1(F)Oc2cccc(CN3CCN(C4=Nc5cc(Cl)ccc5Nc5ccccc54)CC3)c2O1,3110 nM,8 nM
Cc1ccccc1C(=O)NN1c2ccccc2N=C(N2CCN(C)CC2)c2cc(Cl)ccc21,48 nM,1570 nM
CC(C)(C)CN1CCN(C2=Nc3cc(Cl)ccc3N(NC(=O)c3ccccc3Cl)c3ccccc32)CC1,447 nM,> 3000 nM
Cc1ccc(CN2CCN(C3=Nc4cc(Cl)ccc4N(NC(=O)c4ccccc4Cl)c4ccccc43)CC2)c(C)c1,1100 nM,> 3000 nM
CN1CCN(C2=Nc3cc(Cl)ccc3N(NC(=O)c3ccc(F)cc3C(F)(F)F)c3ccccc32)CC1,49 nM,1620 nM
